Experimental data published in PubChem BioAssay (NCI).
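Method: 48-hour compound exposure of cells in 96-well plates, five concentrations, linear interpolation of endpoints. Here, GI50 denotes the concentration required for 50% inhibition of growth. The concentration for full growth arrest is given as TGI.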

Tests used:
Assay in all cases: NCI tumour cell line growth inhibition, 48 h
BT-549 breast = test system: BT-549 breast
OVCAR-3 ovarian = test system: OVCAR-3 ovarian
SK-MEL-2 melanoma = test system: SK-MEL-2 melanoma
CCRF-CEM leukemia = test system: CCRF-CEM leukemia
A549 NSCLC = test system: A549 NSCLC
COLO 205 colon = test system: COLO 205 colon
UACC-257 melanoma = test system: UACC-257 melanoma
SN12C renal = test system: SN12C renal
RXF 393 renal = test system: RXF 393 renal
SK-OV-3 ovarian = test system: SK-OV-3 ovarian
KM12 colon = test system: KM12 colon
SK-MEL-28 melanoma = test system: SK-MEL-28 melanoma
UO-31 renal = test system: UO-31 renal
NCI/ADR-RES ovarian = test system: NCI/ADR-RES ovarian
DU-145 prostate = test system: DU-145 prostate
M14 melanoma = test system: M14 melanoma
TK-10 renal = test system: TK-10 renal
HCT-15 colon = test system: HCT-15 colon
PC-3 prostate = test system: PC-3 prostate
SF-295 CNS = test system: SF-295 CNS
SK-MEL-5 melanoma = test system: SK-MEL-5 melanoma
786-0 renal = test system: 786-0 renal
IGROV1 ovarian = test system: IGROV1 ovarian
RPMI-8226 leukemia = test system: RPMI-8226 leukemia
SF-539 CNS = test system: SF-539 CNS
A498 renal = test system: A498 renal
HOP-92 NSCLC = test system: HOP-92 NSCLC
MDA-MB-435 = test system: MDA-MB-435
NCI-H460 lung = test system: NCI-H460 lung
MDA-MB-468 breast = test system: MDA-MB-468 breast

SMILES: O=C(N/N=C/c1c[nH]c2ccccc12)Nc1ccccc1Cl
- TGI (BT-549 breast): 6310 nM
- GI50 (OVCAR-3 ovarian): 96 nM
- TGI (OVCAR-3 ovarian): 2320 nM
- GI50 (SK-MEL-2 melanoma): 222 nM
- TGI (SK-MEL-2 melanoma): 11300 nM
- GI50 (CCRF-CEM leukemia): 178 nM
- TGI (CCRF-CEM leukemia): 10200 nM
- GI50 (A549 NSCLC): 577 nM
- TGI (A549 NSCLC): 13000 nM
- GI50 (COLO 205 colon): 292 nM
- TGI (COLO 205 colon): 1070 nM
- GI50 (UACC-257 melanoma): 598 nM
- TGI (UACC-257 melanoma): 22500 nM
- GI50 (SN12C renal): 433 nM
- TGI (SN12C renal): 6510 nM
- GI50 (RXF 393 renal): 292 nM
- TGI (RXF 393 renal): 2100 nM
- GI50 (SK-OV-3 ovarian): 526 nM
- TGI (SK-OV-3 ovarian): 20200 nM
- GI50 (KM12 colon): 172 nM
- TGI (KM12 colon): 5190 nM
- GI50 (SK-MEL-28 melanoma): 2520 nM
- TGI (SK-MEL-28 melanoma): 19100 nM
- GI50 (UO-31 renal): 471 nM
- TGI (UO-31 renal): 14900 nM
- GI50 (NCI/ADR-RES ovarian): 57.4 nM
- TGI (NCI/ADR-RES ovarian): 613 nM
- GI50 (DU-145 prostate): 432 nM
- TGI (DU-145 prostate): 11400 nM
- GI50 (M14 melanoma): 111 nM
- TGI (M14 melanoma): 11900 nM
- GI50 (TK-10 renal): 2410 nM
- TGI (TK-10 renal): 20600 nM
- GI50 (HCT-15 colon): 65.8 nM
- TGI (HCT-15 colon): 12000 nM
- GI50 (PC-3 prostate): 428 nM
- TGI (PC-3 prostate): 15400 nM
- GI50 (SF-295 CNS): 255 nM
- TGI (SF-295 CNS): 2520 nM
- GI50 (SK-MEL-5 melanoma): 254 nM
- TGI (SK-MEL-5 melanoma): 1370 nM
- GI50 (786-0 renal): 493 nM
- TGI (786-0 renal): 3740 nM
- GI50 (IGROV1 ovarian): 358 nM
- TGI (IGROV1 ovarian): 12200 nM
- GI50 (RPMI-8226 leukemia): 345 nM
- TGI (RPMI-8226 leukemia): 4760 nM
- GI50 (SF-539 CNS): 205 nM
- TGI (SF-539 CNS): 684 nM
- GI50 (A498 renal): 5230 nM
- TGI (A498 renal): 18500 nM
- GI50 (HOP-92 NSCLC): 869 nM
- TGI (HOP-92 NSCLC): 8330 nM
- GI50 (MDA-MB-435): 27 nM
- TGI (MDA-MB-435): 89.1 nM
- GI50 (NCI-H460 lung): 336 nM
- TGI (NCI-H460 lung): 6200 nM
- GI50 (MDA-MB-468 breast): 217 nM
- TGI (MDA-MB-468 breast): 584 nM
